From patent US20080176889A1, “9-anilinoacridine alkylating agents” (priority 2004, published 2008)
Where a name gives a salt, the structure may show the parent alone. Read-outs that look alike come from different tables or passages of the source.

Tests used:
CCRF-CEM/Taxol = assay: XTT cytotoxicity assay, taxol-resistant subline; type: cell-based, human; conditions: for IC50: Homo sapiens, CCRF-CEM, XTT, 72 hours incubation, read-out: IC50 CCRF-CEM/Taxol; for folds of resistance CCRF-CEM/Taxol vs CCRF-CEM parent cells: number in bracket, ratio of IC50's
Description: (§1) The effects of the compounds on cell growth were determined in all human tumor cells (i.e. T-cell acute lymphocytic leukemia CCRF-CEM), in a 72 h incubation, by XTT-tetrazolium assay, as described by Scudiero et al., Cancer Res. 1988, 48, 4827-4833. After the addition of phenazine methosulfate-XTT solution at 37° C. for 6 h, absorbance at 450 and 630 nm was detected on a microplate reader (EL 340; Bio-Tek Instruments Inc., Winooski, Vt.). Six to seven concentrations of each compound were used. The IC50 and dose-effect relationships of the compounds for antitumor activity were calculated by a median-effect plot (see, e.g., Chou et al. Adv. Enzyme Regul. 1984, 22, 27-55) using a computer program on an IBM-PC workstation (see, e.g., Chou et al. Dose-Effect Analysis with Microcomputers: Quantitation of ED50, LD50, Synergism, Antagonism, Low-Dose Risk, Receptor-Ligands Binding and Enzyme Kinetics; Biosoft: Cambridge, U.K., 1987).
(§2) Data summarizing the growth inhibition of human lymphoblastic leukemic cells (CCRF-CEM) and its drug-resistant sublines (resistant to vinblastine and taxol, CCRF-CEM/VBL and CCRF-CEM/taxol, respectively) by compound 37 is shown in Table 4.

A549 = assay: SRB cytotoxicity assay, solid tumor cells A549; type: cell-based, human; conditions: for IC50: Homo sapiens, A549, SRB
[1] = test system: human lymphoblastic leukemic cells (CCRF-CEM); assay: XTT-tetrazolium cytotoxicity assay, CCRF-CEM; type: cell-based
Description: as §1

CCRF-CEM/VBL = assay: XTT cytotoxicity assay, vinblastine-resistant subline; type: cell-based, human; conditions: for IC50: Homo sapiens, CCRF-CEM, XTT, 72 hours incubation, read-out: IC50 CCRF-CEM/VBL; for folds of resistance CCRF-CEM/VBL vs CCRF-CEM parent cells: number in bracket, ratio of IC50's
Description: as §1, §2

HCT-116 = assay: SRB cytotoxicity assay, solid tumor cells HCT-116; type: cell-based; conditions: Homo sapiens, HCT-116; SRB, 72 hours incubation; read-out: IC50 HCT-116
Topo II = assay: Topo II-mediated relaxation of pRYG-DNA; type: biochemical
[2] = 72 hours incubation, read-out: IC50 A549
[3] = incubation for 3 hours, washed, then incubated for a total of 72 hours (footnote b), read-out: IC50 A549 after washing
[4] = Homo sapiens, Table 4, XTT, 72 hours incubation, read-out: IC50 CCRF-CEM
[5] = Table 1, Type 1 compounds, 72 h incubation, XTT
[6] = Table 2, Type 2 compounds, 72 h incubation, XTT

Cc1cccc2c(Nc3ccc(OCCN(CCCl)CCCl)cc3)c3cccc(C(=O)NCCN(C)C)c3nc12 (as salt: salt) [Compound 44, 9-(4-{2-[Bis(2-chloroethyl)amino]ethoxy}phenylamino)-5-methylacridin-4-carboxylic acid (2-dimethylaminoethyl)amide]
melting point: 185 to 186 °C

Nc1cc(CO)cc(Nc2c3ccccc3nc3ccccc23)c1 [AHMA, 3-(9-acridinylamino)-5-hydroxymethylaniline]
IC50 (CCRF-CEM/Taxol): 0.6 ± 0.074 µM
folds of resistance CCRF-CEM/Taxol vs CCRF-CEM parent cells (CCRF-CEM/Taxol): 0.8 ×
IC50 (A549; [2]): 0.047 µM
IC50 (A549; [3]): 0.55 µM
reduction of potency when drug washed away (A549; similar conditions, drug washed away): about 12 fold
IC50 ([1]; Homo sapiens, Table 1, Type 1 compounds, 72 h incubation, XTT, read-out: IC50): 0.753 µM
IC50 [1, 4]: 0.753 ± 0.378 µM
IC50 (CCRF-CEM/VBL): 1.6 µM
folds of resistance CCRF-CEM/VBL vs CCRF-CEM parent cells (CCRF-CEM/VBL): 2.1 ×

ClCCN(CCCl)CCOc1cccc(Nc2c3ccccc3nc3ccccc23)c1 [Compound 38, Acridin-9-yl-(3-{2-[bis(2-chloroethyl)amino]ethoxy}phenyl)amine]
IC50 ([1]; Homo sapiens, 72 h): 0.095 µM

ClCCN(CCCl)CCCCOc1cccc(Nc2c3ccccc3nc3ccccc23)c1 [Compound 39, Acridin-9-yl-(3-{4-[bis(2-chloroethyl)amino]butoxy}phenyl)amine]
IC50 ([1]; Homo sapiens, 72 h): 0.456 µM

ClCCN(CCCl)CCOc1ccc(Nc2c3ccccc3nc3ccccc23)cc1 [Compound 40, Acridin-9-yl-(4-{2-[bis(2-chloroethyl)amino]ethoxy}phenyl)amine]
IC50 ([1]; Homo sapiens, 72 h): 0.02 µM

ClCCN(CCCl)CCCCOc1ccc(Nc2c3ccccc3nc3ccccc23)cc1 [Compound 41, Acridin-9-yl-(4-{4-[bis(2-chloroethyl)amino]buoxy}phenyl)amine]
IC50 ([1]; Homo sapiens, 72 h): 0.061 µM

Cc1cccc2c(Nc3cccc(OCCN(CCCl)CCCl)c3)c3cccc(C(=O)NCCN(C)C)c3nc12 [Compound 42, 9-(3-{2-[Bis(2-chloroethyl)amino]ethoxy}phenylamino)-5-methylacridin-4-carboxylic acid (2-dimethylaminoethyl)amide]
IC50 [1, 5]: 0.003 µM

Cc1cccc2c(Nc3cccc(OCCCCN(CCCl)CCCl)c3)c3cccc(C(=O)NCCN(C)C)c3nc12 [Compound 43, 9-(3-{4-[Bis(2-chloroethyl)amino]butoxy}phenylamino)-5-methylacridin-4-carboxylic acid (2-dimethylaminoethyl)amide]
IC50 [1, 5]: 0.0235 µM

Cc1cccc2c(Nc3ccc(OCCN(CCCl)CCCl)cc3)c3cccc(C(=O)NCCN(C)C)c3nc12 [Compound 44, 9-(4-{2-[Bis(2-chloroethyl)amino]ethoxy}phenylamino)-5-methylacridin-4-carboxylic acid (2-dimethylaminoethyl)amide]
IC50 [1, 5]: 0.773 µM

Cc1cccc2c(Nc3ccc(OCCCCN(CCCl)CCCl)cc3)c3cccc(C(=O)NCCN(C)C)c3nc12 [Compound 45, 9-(4-{4-[Bis(2-chloroethyl)amino]butoxy}phenylamino)-5-methylacridin-4-carboxylic acid (2-dimethylaminoethyl)amide]
IC50 [1, 5]: 0.023 µM

ClCCN(CCCl)Cc1cccc(Nc2c3ccccc3nc3ccccc23)c1 [Compound 46, Acridin-9-yl-(3-{[bis-(2-chloroethyl)amino]methyl}phenyl)amine]
IC50 [1, 5]: 0.0074 µM

ClCCN(CCCl)Cc1ccc(Nc2c3ccccc3nc3ccccc23)cc1 [Compound 47, Acridin-9-yl-(4-{[bis(2-chloroethyl)amino]methyl}phenyl)amine]
IC50 [1, 5]: 0.03 µM

Cc1cccc2c(Nc3cccc(CN(CCCl)CCCl)c3)c3cccc(C(=O)NCCN(C)C)c3nc12 [Compound 48, 9-(3-{[Bis(2-chloroethyl)amino]methyl}phenylamino)-5-methylacridine-4-carboxylic acid (2-dimethylaminoethyl)amide]
IC50 [1, 5]: 0.0017 µM

Cc1cccc2c(Nc3ccc(CN(CCCl)CCCl)cc3)c3cccc(C(=O)NCCN(C)C)c3nc12 [Compound 49, 9-(4-{[Bis(2-chloroethyl)amino]methyl}phenylamino)-5-methylacridin-4-carboxylic acid (2-dimethylaminoethyl)amide]
IC50 [1, 5]: 0.0081 µM

Nc1cc(CO)cc(Nc2c3ccccc3nc3c(OCCN(CCCl)CCCl)cccc23)c1 [Compound 50, [3-Amino-5-(4-{2-[bis(2-chloroethyl)amino]ethoxy}acridin-9-ylamino)phenyl]methanol]
IC50 [1, 6]: 0.0072 µM

CCOC(=O)Nc1cc(CO)cc(Nc2c3ccccc3nc3c(OCCN(CCCl)CCCl)cccc23)c1 [Compound 51]
IC50 [1, 6]: 0.026 µM

Nc1cc(CO)cc(Nc2c3ccccc3nc3c(OCCCCN(CCCl)CCCl)cccc23)c1 [Compound 52, [3-Amino-5-(4-{4-[bis-(2-chloroethyl)amino]butoxy}acridin-9-ylamino)phenyl]-methanol]
IC50 [1, 6]: 0.0046 µM

OCc1cc(O)cc(Nc2c3ccccc3nc3c(OCCN(CCCl)CCCl)cccc23)c1 [Compound 53, 3-(4-{2-[Bis-(2-chloroethyl)amino]ethoxy}acridin-9-ylamino)-5-hydroxymethylphenol]
IC50 [1, 6]: 0.0061 µM

ClCCN(CCCl)CCOc1cccc(Nc2c3ccccc3nc3c(OCCN(CCCl)CCCl)cccc23)c1 [Compound 54, (4-{2-[Bis-(2-chloroethyl)amino]ethoxy}acridin-9-yl)-(3-{2-[bis(2-chloroethyl)-amino]ethoxy}phenyl)amine]
IC50 ([1]; Homo sapiens, 72 h): 0.0186 µM

ClCCN(CCCl)CCCCOc1cccc(Nc2c3ccccc3nc3c(OCCN(CCCl)CCCl)cccc23)c1 [Compound 55]
IC50 ([1]; Homo sapiens, 72 h): 0.006 µM

ClCCN(CCCl)CCOc1ccc(Nc2c3ccccc3nc3c(OCCN(CCCl)CCCl)cccc23)cc1 [Compound 56, (4-[2-[Bis(2-chloroethyl)amino]ethoxy]acridin-9-yl)-(4-{2-[bis(2-chloroethyl)amino]-ethoxy}phenyl)amine]
IC50 ([1]; Homo sapiens, 72 h): 0.0173 µM

ClCCN(CCCl)CCCCOc1cccc(Nc2c3ccccc3nc3c(OCCN(CCCl)CCCl)cccc23)c1 [Compound 58]
IC50 ([1]; Table 3, Type 3 compounds, 72 h incubation, XTT, read-out: IC50): 0.025 µM

CC(=O)O[C@H]1C(=O)[C@@]2(C)[C@H]([C@H](OC(=O)c3ccccc3)[C@]3(O)C[C@H](OC(=O)[C@H](O)[C@@H](NC(=O)c4ccccc4)c4ccccc4)C(C)=C1C3(C)C)[C@]1(OC(C)=O)CO[C@@H]1C[C@@H]2O [Taxol]
IC50 (CCRF-CEM/Taxol): 0.143 ± 0.007 µM
folds of resistance CCRF-CEM/Taxol vs CCRF-CEM parent cells (CCRF-CEM/Taxol): 95.3 ×
IC50 (A549; [2]): 0.0019 µM
IC50 (A549; [3]): 0.39 µM
IC50 (HCT-116): 0.0013 µM
IC50 [1, 4]: 0.0015 ± 0.0005 µM
IC50 (CCRF-CEM/VBL): 1.62 µM
folds of resistance CCRF-CEM/VBL vs CCRF-CEM parent cells (CCRF-CEM/VBL): 1080 ×

COc1cc([C@@H]2c3cc4c(cc3[C@@H](O[C@@H]3O[C@@H]5CO[C@@H](C)O[C@H]5[C@H](O)[C@H]3O)[C@H]3COC(=O)[C@H]23)OCO4)cc(OC)c1O [VP-16]
Topo II-mediated relaxation of pRYG-DNA (Topo II): inhibited DNA relaxation

CC[C@]1(O)C[C@@H]2CN(CCc3c([nH]c4ccccc34)[C@@](C(=O)OC)(c3cc4c(cc3OC)N(C)[C@H]3[C@@](O)(C(=O)OC)[C@H](OC(C)=O)[C@]5(CC)C=CCN6CC[C@]43[C@@H]65)C2)C1 [Vinblastine]
IC50 (CCRF-CEM/Taxol): 0.029 µM
folds of resistance CCRF-CEM/Taxol vs CCRF-CEM parent cells (CCRF-CEM/Taxol): 24.2 ×
IC50 (A549; [2]): 0.0081 µM
IC50 (A549; [3]): 0.095 µM
IC50 (HCT-116): 0.0014 µM
IC50 [1, 4]: 0.0012 µM
IC50 (CCRF-CEM/VBL): 0.54 µM
folds of resistance CCRF-CEM/VBL vs CCRF-CEM parent cells (CCRF-CEM/VBL): 450 ×

AHMA-tert-butylcarbamate
Topo II-mediated relaxation of pRYG-DNA (Topo II): inhibited DNA relaxation
